# Laboratory results reported in US20080194585A1, “Fungicidal Pyrazine Derivatives” (priority 2005, published 2008).
# Marks after values point to notes of the source that are not given here.
# Columns and labels:
# Conditions in all cases: 40 ppm (*)
# [1] = test system: Septoria nodorum; assay: Test H: wheat glum blotch, preventive spray on wheat seedlings
# Method: (the causal agent of wheat glum blotch) and incubated in a saturated atmosphere at 20° C. for 48 h, and then moved to a growth chamber at 22° C. for 5 days, after which disease ratings were made.
# [2] = test system: Erysiphe graminis f. sp. tritici; assay: Test L: wheat powdery mildew, preventive spray on wheat seedlings
# [3] = test system: Septoria tritici; assay: Test J: wheat leaf blotch, preventive spray on wheat seedlings; assay type: in vivo
# Text: A dash (-) indicates no test results.
# [4] = test system: Plasmopara viticola; assay: Test D: grape downy mildew, spray after inoculation of grape seedlings; assay type: in vivo
# Text: Upon removal, disease ratings were made. […] A dash (-) indicates no test results.
# [5] = test system: Sclerotinia sclerotiorum; assay: Test C: cucumber white mold, preventive spray on cucumber seedlings
# [6] = test system: Botrytis cinerea; assay: Test E: tomato botrytis, preventive spray on tomato seedlings
# [7] = test system: Pythium aphanidermatum; assay: Test A: bluegrass pythium blight, preventive spray on bluegrass seedlings
# [8] = test system: Rhizoctonia oryzae; assay: Test G: turf brown patch, preventive spray on creeping bent grass seedlings
# Method: (the causal agent of turf brown patch) and incubated in a saturated atmosphere at 27° C. for 24 h, and then moved to a growth chamber at 27° C. for 5 days, after which disease ratings were made.
# [9] = test system: Phytophthora infestans; assay: whole plant or invertebrate; assay type: in vivo
# [10] = test system: Colletotrichum orbiculare; assay: Test B: cucumber Colletotrichum anthracnose, preventive spray on cucumber seedlings
# [11] = test system: Puccinia recondita f. sp. tritici; assay: Test K: wheat leaf rust, preventive spray on wheat seedlings
Structure (SMILES),Test H disease control rating [1],Test L disease control rating [2],Test J disease control rating [3],Test D disease control rating [4],Test C disease control rating [5],Test E disease control rating [6],Test A disease control rating [7],Test G disease control rating [8],Test F disease control rating [9],Test B disease control rating [10],Test K disease control rating [11]
CC(CO)n1c(-c2c(F)cccc2F)c(Cl)nc(-n2cccn2)c1=O (stereo not shown) [compound 213],0* %,0* %,0* %,32* %,0* %,41* %,0* %,0* %,0* %,0* %,92* %
CC(CCl)n1c(-c2c(F)cccc2F)c(Cl)nc(-n2cncn2)c1=O (stereo not shown) [compound 214],0* %,0* %,9* %,12* %,0* %,0* %,0* %,0* %,0* %,0* %,69* %
CC(C)Cn1c(-c2c(F)cccc2F)c(Cl)nc(-n2ccnn2)c1=O [compound 215],0* %,0* %,0* %,29* %,0* %,99* %,0* %,0* %,0* %,0* %,55* %
CCC(C)Cn1c(-c2ccc(F)cc2Cl)c(Cl)nc(N2CCC=N2)c1=O (stereo not shown) [compound 216],89* %,94* %,97* %,0* %,0* %,100* %,0* %,0* %,0* %,53* %,94* %
CCC(C)Cn1c(-c2ccc(F)cc2Cl)c(Cl)nc(N2CCC(=O)N2)c1=O (stereo not shown) [compound 217],86* %,62* %,96* %,0* %,90* %,100* %,0* %,0* %,0* %,0* %,86* %
CC[C@H](C)Cn1c(-c2c(F)cc(F)cc2F)c(Cl)nc(N2CCC=N2)c1=O [compound 218],100* %,100* %,100* %,29* %,99* %,100* %,0* %,43* %,0* %,99* %,100* %
CC[C@H](C)Cn1c(-c2c(F)cc(F)cc2F)c(Cl)nc(-n2ccc(C)n2)c1=O [compound 219],100* %,100* %,100* %,36* %,70* %,100* %,0* %,99* %,0* %,100* %,100* %
N#Cc1nc(Cl)c(-c2c(F)cccc2F)n(Cc2ccc(Cl)cc2)c1=O [compound 220],0* %,0* %,25* %,0* %,0* %,0* %,0* %,0* %,0* %,0* %,0* %
O=c1c(-n2cccn2)nc(Cl)c(-c2c(F)cccc2F)n1Cc1ccc(Cl)cc1 [compound 221],98* %,0* %,100* %,0* %,0* %,99* %,0* %,16* %,0* %,0* %,89* %
O=c1c(-n2cncn2)nc(Cl)c(-c2c(F)cccc2F)n1Cc1ccc(Cl)cc1 [compound 222],60* %,0* %,86* %,0* %,0* %,92* %,0* %,0* %,0* %,0* %,79* %
CC1CCCCC1n1c(-c2c(F)cccc2F)c(Cl)nc(C#N)c1=O (stereo not shown) [compound 223],0* %,51* %,17* %,0* %,0* %,0* %,0* %,0* %,0* %,0* %,0* %
CC1CCCCC1n1c(-c2c(F)cccc2F)c(Cl)nc(-n2cccn2)c1=O (stereo not shown) [compound 224],99* %,83* %,100* %,0* %,0* %,100* %,0* %,92* %,0* %,66* %,94* %
CC1CCCCC1n1c(-c2c(F)cccc2F)c(Cl)nc(-n2cncn2)c1=O (stereo not shown) [compound 225],73* %,0* %,100* %,0* %,0* %,100* %,0* %,0* %,0* %,0* %,73* %
CCCCn1c(-c2c(F)cc(F)cc2F)c(Cl)nc(N2CCC=N2)c1=O [compound 226],95* %,46* %,100* %,0* %,0* %,0* %,0* %,0* %,0* %,0* %,82* %
